Laboratory results published in paper PMC6968641, “N-monoarylacetothioureas as potent urease inhibitors: synthesis, SAR, and biological evaluation” (Journal of Enzyme Inhibition and Medicinal Chemistry, 2019).
Values after ≈ are worked out from the molar mass of the structure shown. Where two headings read alike, the source gives them in different places.

Experiments:
[1] = molecular target: T1, H. pylori urease (Helicobacter pylori, UniProt P69996); assay: Urease inhibition, extracted H. pylori urease (indophenol method); format: biochemical; settings: for IC50: IC50 Extracted urease, extracted H. pylori urease
T1 construct: endogenous in cells; host or cells: H. pylori ATCC 43504; sonicated, supernatant desalted on Sephadex G-25 (crude extract)
Description: For urease inhibition assays, 50 mL broth cultures (2.0 × 10^8 CFU/mL) were centrifuged (5000×g, 4 °C) to collect the bacteria, and after washing twice with phosphate-buffered saline (pH 7.4), the H. pylori precipitation was stored at –80 °C for 8 h, and then was returned to room temperature, and after addition of 3 mL of distilled water and protease inhibitors, sonication was performed for 60 s. Following centrifugation (15,000×g, 4 °C), the supernatant was desalted through Sephadex G-25 column (PD-10 columns, Amersham Pharmacia Biotech, Uppsala, Sweden). The resultant crude urease solution was added to an equal volume of glycerol and stored at 4 °C until use in the experiment.
Urease activity was determined in the 96-well assay plate by measuring ammonia production using the indophenol method as described by Weatherburn[20]. Briefly, to each well, 50 µL of urea (10 mM) in phosphate buffer solution was added in a mixture of 25 µL (10 U) of H. pylori urease and 25 µL of the test compound, which was incubated at 37 °C for 0.5 h. Fifty µL of phenol reagent (containing 127 mM phenol and 0.168 mM sodium nitroprusside) and 50 µL of alkali reagent (containing 125 mM NaOH and 0.168 mM NaOCl) were added in turn. The resulted mixture was incubated at 37 °C for another 0.5 h for colouration developing. The increasing absorbance was measured at 630 nm after 50 min using a microplate reader (Molecular Devices, San Jose, CA). Percentage inhibitions were calculated from the following formula (Equation (1)). Experiments were performed in triplicate and AHA was used as reference drug, and the IC50 value was determined as the concentration of compound that give 50% inhibition of maximal activity. As for the urease assay of intact cells, 25 µL (10 U) of H. pylori urease was replaced by 25 µL of cell suspension (4.0 × 10^7 CFU/mL).

[2] = molecular target: T2, urease in intact H. pylori cell (Helicobacter pylori, UniProt P69996); assay: Urease inhibition in intact H. pylori cell (indophenol method); format: cell-based
T2 construct: H. pylori urease was replaced by 25 µL of cell suspension (4.0 × 10^7 CFU/mL); endogenous in cells; host or cells: intact H. pylori ATCC 43504 cells

[3] = tested on: H. pylori; assay: Minimum inhibitory concentration, broth microdilution (CLSI); format: cell-based, Helicobacter pylori (ATCC 43504); settings: Helicobacter pylori
Description: H. pylori (ATCC 43504; […] The minimum inhibitory concentration (MIC) values were determined using the broth microdilution protocol according to the methods of the Clinical and Laboratory Standards Institute (CLSI)[21].

[4] = molecular target: T3, Jack bean urease (Canavalia ensiformis, UniProt P07374); assay: Ligand affinity by surface plasmon resonance (SPR); format: binding; settings: for kon: pH 7.4; for koff: pH 7.4, SPR, immobilised urease, PBS pH 7.4
T3 construct: purchased
Description: The binding kinetics of selected compounds were assayed via surface plasmon resonance (SPR) using an OPEN SPR instrument (Nicoya Lifesciences, Kitchener, Canada). First, urease dissolved (50 µg/mL) in PBS buffer (1 mM KH2PO4, 155 mM NaCl, 3 mM Na2HPO4-12H2O, pH 7.4), was immobilised to a CM5 chip using a standard amine coupling procedure. Then, SPR measurements were carried out in PBS, and stock solutions were diluted in the same buffer. Data were collected with OpenSPR control software. Experiments were performed by monitoring the refractive index changes as a function of time under constant flow rate of 20 µL/min. The relative amount of inhibitor bound to the urease was determined by measuring the net increase in refractive index over time compared to control running buffer. There is an inline subtraction of reference surface during the run. This change is usually reported in response units (RU). Sensograms were processed and analysed using TraceDrawer software. The binding curves were fit to determine the equilibrium dissociation constant (KD).
In the present paper, the pure Jack bean urease from commercial was used for this assay because of non-availability of pure H. pylori urease. […] For efficient and tight ligand binding, the rate constant koff is of particular interest, because koff has a potential to differentiate indistinguishable compounds with similar affinities.

[5] = molecular target: T3, Jack bean urease; assay: Enzyme kinetic study (indophenol method); format: biochemical; settings: for Type of inhibition: Jack bean urease; for Ki': dissociation constant of urease-urea-inhibitor complex
Description: Based on the indophenol method, the velocity of ammonia production (V) was measured in the presence of concentration gradients of urea ([S]) for every specific concentration of selected compounds ([I]). Nonlinear fitting curves to data of V and [S] were used to determine the type of enzyme inhibition based on the general kinetics equation (Equation (1)). Subsequently, the resulted fitting constants ( Km/Vmax(1+[I]/Ki) or 1/Vmax(1+[I]/Ki′) ) and [I] were linearly fitted to give kinetic parameters Ki and Ki', respectively. The experimental assay was performed against a pure urease (Jack bean urease) for the consideration of precision. (1) V=Vmax[S]/Km(1+[I]/Ki)+(1+[I]/K^′i)[S]
Mazzei et al. confirmed that urease shared the mechanism of catalysis and inhibition regardless of the biological sources[27]^,[28]. For excluding the possible interference, a pure urease (Jack bean urease) was therefore used for kinetic assays. As an example, Figure 2 describes the preincubation-time dependence of urease inhibition by b19. The suppressed urease activity maintained at relatively constant values with the increasing preincubation time under different concentrations of b19, resulting in nearly equal IC50 values.
Similarly, kinetic parameters ( Ki and Ki' ) and inhibition types of other compounds were also determined and are shown in Table 3.

[6] = Cytotoxicity MTT assay, L-02; format: cell-based; settings: human, L-02 cells (normal hepatic cell line), 25 μg/mL
Description: (§1) The stock solutions of the selected compounds (250 µg/mL, in PBS) were prepared in medium. L-02 cells and P69 cells were grown in medium (90% RPMI-1640 medium, 10% foetal bovine serum, 1% penicillin/streptomycin) and maintained at 37 °C in a humidified atmosphere containing 5% CO2, respectively. Cells were seeded in 96-well cell culture plates. On the day when seeding, the cells were exposed to 250 µg/mL of compounds and further cultured for 72 h at 37 °C. Cell proliferation was then determined using the thiazolyl blue tetrazolium bromide (MTT) assay.

[7] = Cytotoxicity MTT assay, P69; format: cell-based; settings: human, P69 cells (normal prostate cell line), 25 μg/mL
Description: as §1

T1 sequence (P14916 whole entry): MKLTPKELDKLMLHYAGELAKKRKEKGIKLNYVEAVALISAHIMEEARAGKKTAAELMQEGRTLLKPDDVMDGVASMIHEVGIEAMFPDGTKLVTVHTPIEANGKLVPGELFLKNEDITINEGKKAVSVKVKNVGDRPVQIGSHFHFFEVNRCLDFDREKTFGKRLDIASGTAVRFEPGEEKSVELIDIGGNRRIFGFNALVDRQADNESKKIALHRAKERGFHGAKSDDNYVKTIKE
T1 sequence (P69996 whole entry): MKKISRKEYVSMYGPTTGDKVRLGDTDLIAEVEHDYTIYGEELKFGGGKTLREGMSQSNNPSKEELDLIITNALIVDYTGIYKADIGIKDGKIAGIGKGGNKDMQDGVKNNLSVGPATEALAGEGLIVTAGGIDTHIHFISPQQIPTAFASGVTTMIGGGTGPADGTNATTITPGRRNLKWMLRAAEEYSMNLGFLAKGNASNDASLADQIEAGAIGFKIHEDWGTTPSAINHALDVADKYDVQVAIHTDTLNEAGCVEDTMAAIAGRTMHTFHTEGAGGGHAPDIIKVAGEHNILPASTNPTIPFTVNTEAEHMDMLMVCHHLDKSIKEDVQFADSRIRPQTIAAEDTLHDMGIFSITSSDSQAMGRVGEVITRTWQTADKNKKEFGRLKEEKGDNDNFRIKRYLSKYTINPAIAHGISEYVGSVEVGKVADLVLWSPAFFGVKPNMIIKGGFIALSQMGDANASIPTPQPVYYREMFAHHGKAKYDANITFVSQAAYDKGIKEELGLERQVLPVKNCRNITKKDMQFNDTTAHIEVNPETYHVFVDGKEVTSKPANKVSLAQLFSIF
T2 sequence (P69996 whole entry): as above
T2 sequence (P14916 whole entry, further chain): as the sequence (P14916 whole entry) above
T3 sequence (P07374 whole entry, looked up): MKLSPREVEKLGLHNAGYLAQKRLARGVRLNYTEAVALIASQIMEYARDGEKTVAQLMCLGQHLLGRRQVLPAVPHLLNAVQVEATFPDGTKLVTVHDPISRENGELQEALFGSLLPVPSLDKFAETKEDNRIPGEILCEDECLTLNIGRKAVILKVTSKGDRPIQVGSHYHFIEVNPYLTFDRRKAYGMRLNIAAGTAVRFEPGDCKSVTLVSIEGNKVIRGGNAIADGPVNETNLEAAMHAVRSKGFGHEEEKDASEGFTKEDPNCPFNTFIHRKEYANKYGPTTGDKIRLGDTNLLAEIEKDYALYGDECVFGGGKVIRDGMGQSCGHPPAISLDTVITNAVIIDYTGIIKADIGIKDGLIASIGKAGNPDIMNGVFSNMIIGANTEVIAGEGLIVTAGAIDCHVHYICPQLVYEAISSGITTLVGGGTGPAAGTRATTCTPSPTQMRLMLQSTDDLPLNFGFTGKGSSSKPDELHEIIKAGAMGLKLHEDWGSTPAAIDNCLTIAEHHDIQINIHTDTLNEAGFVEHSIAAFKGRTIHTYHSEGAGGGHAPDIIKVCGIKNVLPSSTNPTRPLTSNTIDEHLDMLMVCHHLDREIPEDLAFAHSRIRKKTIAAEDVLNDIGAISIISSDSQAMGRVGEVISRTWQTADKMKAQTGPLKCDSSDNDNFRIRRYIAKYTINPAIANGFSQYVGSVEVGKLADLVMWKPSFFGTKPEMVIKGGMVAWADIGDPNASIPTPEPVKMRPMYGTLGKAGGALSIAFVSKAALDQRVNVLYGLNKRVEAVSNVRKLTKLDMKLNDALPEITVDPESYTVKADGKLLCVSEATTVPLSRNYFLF

SMILES: Cc1ccc(CC(=O)NC(N)=S)cc1 [b16]
- IC50 [1]: 5.2 ± 0.32 µM
- IC50 [2]: 35.7 ± 1.7 µM
- MIC ([3]; pH=4.0, read-out: MIC pH=4.0): 2 µM (≈ 0.417 µg/mL)
- MIC ([3]; pH=7.0, read-out: MIC pH=7.0): 64 µM (≈ 13.3 µg/mL)
- Kd [4]: 0.162 ± 0.0038 µM
- kon [4]: 501000 M⁻¹ s⁻¹
- koff [4]: 0.081 s⁻¹
- Ki [5]: 1.28 µM
- Type of inhibition [5]: Reversible
- Ki' [5]: 2.84 µM
- viability at 72 h, 25 µg/mL [6]: 114%
- viability at 72 h, 25 µg/mL [7]: 89.9%
- melting point: 171.2 to 172.5 °C

SMILES: NC(=S)NC(=O)Cc1ccc(Cl)c(Cl)c1 [b3]
- IC50 [1]: 63 ± 4.6 µM
- melting point: 202.1 to 203.4 °C

SMILES: NC(=S)NC(=O)Cc1ccc(Br)cc1 [b12]
- IC50 [1]: 22.9 ± 0.4 µM
- IC50 [2]: 189 ± 18 µM
- viability at 72 h, 25 µg/mL [6]: 91.5%
- viability at 72 h, 25 µg/mL [7]: 89.4%
- melting point: 174.9 to 176.2 °C

SMILES: NC(=S)NC(=O)Cc1ccc(F)cc1 [b23]
- IC50 [1]: 14.6 ± 1 µM
- IC50 [2]: 93.6 ± 5.5 µM
- MIC ([3]; pH=4.0, read-out: MIC pH=4.0): 8 µM (≈ 1.7 µg/mL)
- MIC ([3]; pH=7.0, read-out: MIC pH=7.0): > 64 µM
- Kd [4]: 0.569 ± 0.0216 µM
- kon [4]: 54300 M⁻¹ s⁻¹
- koff [4]: 0.0309 s⁻¹
- Ki [5]: 3.53 µM
- Type of inhibition [5]: Reversible
- Ki' [5]: 9.67 µM
- viability at 72 h, 25 µg/mL [6]: 96.1%
- viability at 72 h, 25 µg/mL [7]: 97.6%
- melting point: 165.4 to 166.5 °C

SMILES: COc1cccc(CC(=O)NC(N)=S)c1 [b5]
- IC50 [1]: 75.8 ± 5.7 µM
- melting point: 184.5 to 186.1 °C

SMILES: NC(=S)NC(=O)Cc1ccccc1F [b6]
- IC50 [1]: 41.9 ± 2.5 µM
- melting point: 157.2 to 159 °C

SMILES: NC(=S)NC(=O)Cc1cccc(F)c1 [b14]
- IC50 [1]: 50.3 ± 3.5 µM
- melting point: 126 to 127.4 °C

SMILES: NC(=S)NC(=O)Cc1ccc2ccccc2c1 [b24]
- melting point: 202.6 to 204.4 °C

SMILES: NC(=S)NC(=O)Cc1ccccc1Cl [b13]
- IC50 [1]: 54.2 ± 4.8 µM
- melting point: 148.8 to 151.2 °C

SMILES: NC(=S)NC(=O)Cc1cccc(Cl)c1 [b7]
- IC50 [1]: 63.6 ± 5.1 µM
- fold decrease in potency relative to b19, extracted urease ([1]; ratio of IC50 values vs b19): 397 fold
- melting point: 136.6 to 137.4 °C

SMILES: NC(=S)NC(=O)Cc1ccccc1Br [b15]
- IC50 [1]: 51.1 ± 4.4 µM
- melting point: 179 to 179.5 °C

SMILES: COc1ccccc1CC(=O)NC(N)=S [b17]
- IC50 [1]: 55.7 ± 3.1 µM
- melting point: 135.4 to 136.9 °C

SMILES: Cc1ccccc1CC(=O)NC(N)=S [b18]
- IC50 [1]: 46.2 ± 1.8 µM
- melting point: 135.6 to 137.1 °C

SMILES: NC(=S)NC(=O)Cc1ccc2c(c1)OCO2 [b28]
- IC50 [1]: 98 ± 5 µM
- melting point: 153.5 to 155 °C
